The subject of data set [1] is human liver cancer plc/prf/5. The settings on record: 10 mg/kg (based on rapamycin), i.v., Q2W × 2W.
Data set [2] is described as follows: In vitro degradation assay in 0.01 M PBS buffer solution. The class given is physicochemical. The method, then:
In order to determine the degradation of the compounds in PBS buffer solution, the compounds DSR1˜6 were dissolved in 0.01 M PBS buffer solution, and were sampled every 30 min.

In data set [3] the test system is human colon cancer SW-620. Briefly: Xenografted tumor of human colon cancer SW-620 in nude mice. The settings on record: 45 mg/kg, qw × 3w, iv. On the technique in general: In xenograft studies the graft and the host belong to different species.
For another data set, the system named is human colon cancer HT-29. Briefly: Xenografted tumor of human colon cancer HT-29 in nude mice. The class given is in vivo, BALB/cA nude mice. The settings on record: 45 mg/kg, qw × 3w, iv.
Another data set deals with human lung cancer A549. Briefly: Xenografted tumor of human lung cancer A549 in nude mice. The settings on record: 45 mg/kg, qw × 3w, iv. The class given is in vivo, BALB/cA nude mice.
Data set [4] deals with human ovarian cancer SKOV-3. Kind of data set: Xenografted tumor of human ovarian cancer SKOV-3 in nude mice. Type of data set: in vivo, BALB/cA nude mice. The settings on record: 45 mg/kg, qw × 3w, iv.
The test system of data set [5] is human colon cancer HCT-116. Kind of data set: Xenografted tumor of human colon cancer HCT-116 in nude mice. The class given is in vivo, BALB/cA nude mice. The settings on record: 45 mg/kg, qw × 3w, iv. The method, then:
The diameter of subcutaneously xenografted tumor of the nude mice was measured by the caliper.

Read-outs that look alike come from different tables or passages of the source. Marks after values point to notes of the source that are not given here.

One may read the T/C as the ratio of treated to control.

With “conjugate of methoxy PEG (20K) dipeptide of glutamic acid glycine-rapamycin [LPR-2]”, in data set [1], the “Delayed days of tumor growth (to 1000 mm^3)” value is above 7 days. Besides, the “Tumor volume (average ± standard error)” value in data set [1] (day 24 after the inoculation (grouping)) worked out at 353 ± 54 mm^3; in data set [1] (day 27 after the inoculation), 404 ± 89 mm^3; in data set [1] (day 31 after the inoculation), 391 ± 72 mm^3; in data set [1] (day 34 after the inoculation) it was 456 ± 77 mm^3; in data set [1] (day 38 after the inoculation), 536 ± 77 mm^3.
Regarding “conjugate of methoxy PEG dipeptide acid of glutamic acid (20K)-dasatinib [DSR-1]”, the degradation in data set [2] (at 60 min) was found to be 60%.
Turning to “conjugate of methoxy PEG dipeptide of glutamic acid alanine (20K)-dasatinib [DSR-3]”, the degradation in data set [2] (at 150 min) is 50%.
Regarding “conjugate of methoxy PEG dipeptide of glutamic acid and glycine (number-average molecular weight of 20,000)-irinotecan [YNR-1]”, the “RTV (mean ± SD)” value was 0.003 ± 0.002**^,# in data set [3]; 5.71 ± 1.21 in the data set with human colon cancer HT-29; 2.97 ± 1.04*^,# in the data set with human lung cancer A549; 0.07 ± 0.01*^,# in data set [4]; 1.78 ± 0.23**^,## in data set [5]. The T/C in data set [3] is reported as 0.02%; in the data set on human colon cancer HT-29, 41.08%; in the data set on human lung cancer A549, 20.62%; in data set [4] it was 0.53%; in data set [5], 27.60%. The “TV (mean ± SD) d0” value came out at 130 ± 43 mm^3 in data set [3] (d0); 115 ± 25 mm^3 with human colon cancer HT-29 (d0); 105 ± 21 mm^3 with human lung cancer A549 (d0); 135 ± 35 mm^3 in data set [4] (d0); 132 ± 30 mm^3 in data set [5] (d0). Further, the “TV (mean ± SD) d28” value in data set [3] (d28) is reported as 0.37 ± 0.29 mm^3; with human colon cancer HT-29 (d28), 642 ± 105 mm^3; in the data set on human lung cancer A549 (d28) it was 320 ± 154 mm^3; in data set [4] (d28), 1.27 ± 1.98 mm^3; in data set [5] (d28), 234 ± 54 mm^3. For the same substance, the “number of animals with vanished tumor” value was 2 in data set [3] (d28, 6 mice per group) and 4 in data set [4] (d28, 6 mice per group).

(Values after patent publication US9700633B2, “Conjugates of water soluble polymer-amino acid oligopeptide-drug, preparation method and use thereof” (JENKEM TECHNOLOGY CO. LTD., TIANJIN BRANCH, priority 2013, dated 2017).)
